Test results taken from patent EP0259014A2, “5-Deoxy-5-fluorokanamycin B derivatives and processes for the production thereof” (ZAIDAN HOJIN BISEIBUTSU KAGAKU KENKYU KAI, priority 1986, dated 1988).
≈ marks a conversion by molar mass, not a printed value. Like-named read-outs stand apart in the source and are kept apart here.

Columns and labels:
[1] = system: Staphylococcus epidermidis 109; assay: Antibacterial activity against resistant strain (background statement); type: cell-based; conditions: Staphylococcus epidermidis 109, resistant strain producing enzyme reacting with the 4'-hydroxyl group
[2] = system: Staphylococcus aureus Ap 01; assay: as above; type: cell-based; conditions: Staphylococcus aureus Ap 01, resistant strain producing enzyme reacting with the 4'-hydroxyl group
[3] = system: Pseudomonas aeruginosa A3; assay: MIC, serial dilution on Mueller Hinton agar; type: cell-based
[4] = system: Bacillus subtilis PCI219; assay: MIC, serial dilution on Mueller Hinton agar; type: cell-based
[5] = system: Escherichia coli K-12 ML 1629; assay: MIC, serial dilution on Mueller Hinton agar; type: cell-based; conditions: K12ML1629, Escherichia coli K-12 ML 1629, resistance mechanism APH(3')-I, 37°C, 18 hours
[6] = system: Pseudomonas aeruginosa GN 315; assay: MIC, serial dilution on Mueller Hinton agar; type: cell-based; conditions: GN315; Pseudomonas aeruginosa GN 315, resistance mechanism AAC(6'); Mueller Hinton agar, 37°C, 18 hours; read-out: MIC.
[7] = system: Escherichia coli K-12 R5; assay: MIC, serial dilution on Mueller Hinton agar; type: cell-based; conditions: K12R5, 18 h
[8] = system: Corynebacterium bovis 1810; assay: MIC, serial dilution on Mueller Hinton agar; type: cell-based
[9] = system: Klebsiella pneumoniae 22#3038; assay: MIC, serial dilution on Mueller Hinton agar; type: cell-based; conditions: Klebsiella pneumoniae 22#3038, resistance mechanism APH(3')-II, ANT(2"), 37°C, 18 hours
Excerpt: The antibacterial spectra so determined of the new compounds No. 1 to No. 13 (each in the form of the free base) of this invention are as shown in Table 1 below.

[10] = system: Providencia sp. Pv 16; assay: MIC, serial dilution on Mueller Hinton agar; type: cell-based
[11] = system: Escherichia coli K-12; assay: MIC, serial dilution on Mueller Hinton agar; type: cell-based
[12] = system: Escherichia coli JR66/W677; assay: microbe, parasite or virus in culture; type: cell-based; conditions: JR66/W677, 18 h
[13] = system: Staphylococcus aureus Ap01; assay: MIC, serial dilution on Mueller Hinton agar; type: cell-based
[14] = in vivo; conditions: mouse, iv
[15] = system: Escherichia coli JR225; assay: microbe, parasite or virus in culture; type: cell-based; conditions: Escherichia coli, JR225, 18 h
[16] = system: Staphylococcus aureus 209P; assay: MIC, serial dilution on Mueller Hinton agar; type: cell-based
[17] = system: Serratia marcescens; assay: MIC, serial dilution on Mueller Hinton agar; type: cell-based
[18] = system: Proteus rettgeri GN 311; assay: MIC, serial dilution on Mueller Hinton agar; type: cell-based; conditions: Providencia rettgeri
[19] = system: Escherichia coli K-12 LA 290 R55; assay: MIC, serial dilution on Mueller Hinton agar; type: cell-based; conditions: Escherichia coli, K12LA290R55, 18 h
[20] = system: Mycobacterium 607; assay: MIC, serial dilution on Mueller Hinton agar; type: cell-based
[21] = Pseudomonas aeruginosa A3, Mueller Hinton agar, 37°C, 18 hours, read-out: MIC.
[22] = Bacillus subtilis PCI219, Mueller Hinton agar, 37°C, 18 hours, read-out: MIC.
[23] = SP.PV16, Providencia sp. Pv 16, resistance mechanism AAC(2'), Mueller Hinton agar, 37°C, 18 hours, read-out: MIC.
[24] = Staphylococcus aureus 209P, Mueller Hinton agar, 37°C, 18 hours, read-out: MIC.
[25] = Mueller Hinton agar, 37°C, 18 hours, read-out: MIC.
[26] = GN311, Proteus rettgeri GN 311, Mueller Hinton agar, 37°C, 18 hours, read-out: MIC.
[27] = Corynebacterium bovis 1810, Mueller Hinton agar, 37°C, 18 hours, read-out: MIC.
[28] = K12, Escherichia coli K-12, Mueller Hinton agar, 37°C, 18 hours, read-out: MIC.
[29] = Staphylococcus aureus Ap01, resistance mechanism ANT(4'), Mueller Hinton agar, 37°C, 18 hours, read-out: MIC.
[30] = Mycobacterium 607, Mueller Hinton agar, 37°C, incubated for 40 hours, read-out: MIC.

SMILES | MIC [3, 21] [mg/L] | MIC [4, 22] [mg/L] | MIC [5] [mg/L] | MIC [6] [mg/L] | MIC [7] [mg/L] | MIC [9] [mg/L] | MIC [10, 23] [mg/L] | MIC ([11]; Escherichia coli, K12, 18 h) [mg/L] | MIC [12] [mg/L] | LD50 [14] [mg/kg] | MIC [15] [mg/L] | MIC [16, 24] [mg/L] | MIC [17, 25] [mg/L] | MIC [18, 26] [mg/L] | MIC [19] [mg/L] | MIC [8, 27] [mg/L] | MIC [11, 28] [mg/L] | MIC [13, 29] [mg/L] | MIC ([17]; 18 h) [mg/L] | MIC [20, 30] [mg/L] | further results
NCC1OC(OC2C(N)CC(N)C(OC3OC(CO)C(O)C(N)C3O)C2O)C(N)C(F)C1O (stereo not drawn) [3'-fluoro-3'-deoxykanamycin B] | – | – | – | – | – | – | – | – | – | – | – | – | – | – | – | – | – | – | – | – | antibacterial activity [1]: low antibacterial activity; antibacterial activity [2]: low antibacterial activity
NC[C@@H]1CC[C@@H](N)[C@@H](O[C@H]2[C@H](F)[C@@H](O[C@H]3O[C@H](CO)[C@@H](O)[C@H](N)[C@H]3O)[C@H](N)C[C@@H]2N)O1 [Compound No. 4, 5,3',4'-Trideoxy-5-fluorokanamycin B] | 0.39 (≈ 0.86 µM) | 0.78 (≈ 1.72 µM) | 3.12 (≈ 6.88 µM) | 100 (≈ 221 µM) | 100 (≈ 221 µM) | 6.25 (≈ 13.8 µM) | 12.5 (≈ 27.6 µM) | 3.12 (≈ 6.88 µM) | 3.12 (≈ 6.88 µM) | 140 | 3.12 (≈ 6.88 µM) | 0.78 (≈ 1.72 µM) | 12.5 (≈ 27.6 µM) | 0.78 (≈ 1.72 µM) | 6.25 (≈ 13.8 µM) | – | – | – | – | – | MIC ([8]; Corynebacterium bovis, 1810, 18 h): 6.25 mg/L (≈ 13.8 µM); MIC ([13]; Staphylococcus aureus, AP01, 18 h): 3.12 mg/L (≈ 6.88 µM); MIC ([20]; Mycobacterium, 607, 40 h): 6.25 mg/L (≈ 13.8 µM)
NCC[C@H](O)C(=O)N[C@@H]1C[C@H](N)[C@@H](O[C@H]2O[C@H](CN)[C@@H](O)C[C@H]2N)[C@H](F)[C@H]1O[C@H]1O[C@H](CO)[C@@H](O)[C@H](N)[C@H]1O [Compound No. 9, 1-N-(4-Amino-2-(S)-hydroxybutyryl)-5,3'-dideoxy-5-fluorokanamycin B] | 0.39 (≈ 0.683 µM) | < 0.2 | 0.78 (≈ 1.37 µM) | 6.25 (≈ 11 µM) | 3.12 (≈ 5.47 µM) | 1.56 (≈ 2.73 µM) | 0.78 (≈ 1.37 µM) | – | 0.78 (≈ 1.37 µM) | 150 | 0.39 (≈ 0.683 µM) | 0.39 (≈ 0.683 µM) | – | < 0.2 | 0.78 (≈ 1.37 µM) | < 0.2 | < 0.2 | 0.78 (≈ 1.37 µM) | 3.12 (≈ 5.47 µM) | 0.78 (≈ 1.37 µM) | –
NCC[C@H](O)C(=O)N[C@@H]1C[C@H](N)[C@@H](O[C@H]2O[C@H](CN)CC[C@H]2N)[C@H](F)[C@H]1O[C@H]1O[C@H](CO)[C@@H](O)[C@H](N)[C@H]1O [Compound No. 13, 1-N-(4-Amino-2-(S)-hydroxybutyryl)-5,3',4-trideoxy-5-fluorokanamycin B] | 0.39 (≈ 0.703 µM) | 0.39 (≈ 0.703 µM) | 0.39 (≈ 0.703 µM) | 6.25 (≈ 11.3 µM) | 50 (≈ 90.2 µM) | 0.78 (≈ 1.41 µM) | 0.78 (≈ 1.41 µM) | – | 0.78 (≈ 1.41 µM) | 150 | 0.2 (≈ 0.361 µM) | 0.39 (≈ 0.703 µM) | 1.56 (≈ 2.81 µM) | < 0.2 | 0.78 (≈ 1.41 µM) | < 0.2 | 0.2 (≈ 0.361 µM) | 0.78 (≈ 1.41 µM) | – | 0.78 (≈ 1.41 µM) | –
NC[C@H]1O[C@H](O[C@H]2[C@H](O)[C@@H](O[C@H]3O[C@H](CO)[C@@H](O)[C@H](N)[C@H]3O)[C@H](N)C[C@@H]2N)[C@H](N)[C@@H](O)[C@@H]1O [KMB, kanamycin B] | – | – | > 100 | 50 (≈ 103 µM) | 50 (≈ 103 µM) | > 100 | – | 0.39 (≈ 0.807 µM) | > 100 | 110 | 12.5 (≈ 25.9 µM) | – | 3.12 (≈ 6.45 µM) | – | 12.5 (≈ 25.9 µM) | 0.78 (≈ 1.61 µM) | – | 25 (≈ 51.7 µM) | – | 1.56 (≈ 3.23 µM) | MIC ([3]; Pseudomonas aeruginosa, A3, 18 h): 1.56 mg/L (≈ 3.23 µM); MIC ([4]; Bacillus subtilis, PCI219, 18 h): < 0.2 mg/L; MIC ([10]; Providencia, SP.PV16, 18 h): 12.5 mg/L (≈ 25.9 µM); MIC ([16]; Staphylococcus aureus, 209P, 18 h): 0.39 mg/L (≈ 0.807 µM); MIC ([18]; GN311, 18 h): 0.2 mg/L (≈ 0.414 µM)
NC[C@H]1O[C@H](O[C@H]2[C@H](O)[C@@H](O[C@H]3O[C@H](CO)[C@@H](O)[C@H](N)[C@H]3O)[C@H](N)C[C@@H]2N)[C@H](N)C[C@@H]1O [TMB, 3'-deoxykanamycin B, reference compound] | < 0.2 | < 0.2 | – | 50 (≈ 107 µM) | 100 (≈ 214 µM) | 12.5 (≈ 26.7 µM) | 6.25 (≈ 13.4 µM) | – | 12.5 (≈ 26.7 µM) | 80 | 25 (≈ 53.5 µM) | < 0.2 | – | 0.2 (≈ 0.428 µM) | 25 (≈ 53.5 µM) | 6.25 (≈ 13.4 µM) | 0.39 (≈ 0.834 µM) | 1.56 (≈ 3.34 µM) | 12.5 (≈ 26.7 µM) | – | –
